Test results published in paper PMC12249915, “Development of a Cyclodextrin-Based Drug Delivery System to Improve the Physicochemical Properties of Ceftobiprole as a Model Antibiotic” (International Journal of Molecular Sciences, 2025).
In brackets after ≈: the same amount, converted by molar mass. Several values for one entry are separate records, joined by “and”; a condition that tells them apart may be missing. Equal entries are not always repeated. Where two headings read alike, the source gives them in different places. Blank lines part the entries; values can stand above or below the compound they belong to.

Columns and labels:
[1] = Solubility of ceftobiprole determined by HPLC; format: physicochemical
Description: The samples were stored in a freezer, taking into account the recommended storage conditions for ceftobiprole. The stability of the prepared samples was tested at defined intervals using the same methodology. To evaluate potential changes in solubility due to physical transformations such as phase transitions or recrystallization, an identical volume of water was added as in the initial solubility test. Subsequently, the reconstituted samples were analysed by HPLC to determine the precise solubility and to monitor any increase in the concentration of DPs content, thereby assessing both physical and chemical stability.
The LC-MS/MS experiments were performed using the same equipment and methodology as described in [14], with one modification: to acquire a full mass spectrum of SBE-β-CD, the range of detected m/z was broadened to 2500.

[2] = pH of solutions before freeze-drying and after reconstitution; format: physicochemical
[3] = DOSY NMR study of complex formation with SBE-β-CD; format: physicochemical; conditions: for diffusion coefficient D: DOSY, D2O, 25 °C, ceftobiprole/maleic acid 1:25 without SBE-β-CD at 7.5 mM ceftobiprole
Excerpt: Another approach to investigate the complex formation using NMR is the use of Diffusion-Ordered SpectroscopY (DOSY). Based on chemical shifts, each individual signal can be assigned to a proper species present in the analysed sample solution, thus allowing us to determine its diffusion coefficient D . The value of D depends on the hydrodynamic radius r of the analysed species, temperature T , and on the dynamic viscosity η of the solution:(1) D=kBT/6π η r
Here, kB stands for the Boltzmann constant. The solutions used for the DOSY measurements should be appropriately diluted to avoid the viscosity-related issues. Moreover, to properly compare the DOSY spectra between the samples with and without SBE-β-CD, it must be checked whether the viscosities of these two samples are similar.
It is a generally accepted practice to approximate that D is the same for the CD in a complex and for free CD. Assuming a quick exchange regime, to calculate the molar fraction MFCB of ceftobiprole molecules being complexed in relation to all ceftobiprole molecules in the studied solution, one can take advantage of the equation stating that DCB−CD is the weighted average of DCB and DCD :(2) DCB−CD=MFCBDCB+(1−MFCB)DCD
The complexation equilibrium is dynamic, and can be interpreted as a statistical ceftobiprole molecule spending MFCB proportion of time in a complex, and (1−MFCB) fraction of time alone, resulting in overall DCB−CD being the weighted average.
In these studies, 16 increments consisting of 64 scans were performed. A relaxation time of 2 s, a diffusion time of 200 ms, a total diffusion encoding gradient duration of 2 ms, and 16 values of the diffusion encoding gradient incremented from 3 to 25 G/cm were applied. Processing was carried out using the OpenVnmrJ 3.1A software with the option of correction for spatially non-uniform pulsed field gradients.

[4] = cited from earlier work
[5] = design: method as in PMID 38068968; conditions: theoretical calculations, depending on the software used; cited from earlier work

solubility ([1]; 0.1 M aqueous formic acid (HCOOH), solubility of ceftobiprole before use of 0.1 M formic acid and SBE-β-CD): ~100 µg/mL (≈ 187 µM) | fold higher solubility after freeze-drying in 0.1 M HCOOH ([1]; freeze-dried (2.1 mg/mL) vs unprocessed in 0.1 M HCOOH ([…])): 15 fold | solubility ([1]; water, freeze-dried analogue without SBE-β-CD, reconstituted in water, read-out: Solubility of Ceftobiprole for Freeze-Dried Samples in a Preliminary Study Without SBE-β-CD): 2100 µg/mL (≈ 3930 µM) | solubility ([1]; water, freeze-dried from water without acid, read-out: solubility after freeze-drying of pure aqueous solutions): 120 µg/mL (≈ 224 µM) | solubility ([1]; water, without freeze-drying in acidic environment, read-out: water solubility of ceftobiprole): 50 µg/mL (≈ 93.5 µM) | pH of the dissolved sample ([2]; freeze-dried in 0.1 M HCOOH without SBE-β-CD): approximately 5 | diffusion coefficient D [3]: ≈ 3.16 × 10^−10 m^2/s | molar fraction MFCB of ceftobiprole molecules being complexed ([3]; cCB = 1.917 mM, cCD = 7.667 mM): ≈ 0.35 | molar fraction MFCB ([3]; calculated for cCB = 22.5 mM, cCD = 90 mM (1:25:4), K = 77 M^−1): 0.845 | molar fraction MFCB ([3]; calculated for molar ratio 1:25:2, cCD = 45 mM): 0.693 | equilibrium constant K of complex with SBE-β-CD ([3]; semi-quantitative, from DOSY): 77 M⁻¹ | ceftobiprole molecules in the complex with SBE-β-CD ([3]; solution near saturation, 1:25:4): 85%
SMILES: Nc1nc(/C(=N/O)C(=O)N[C@@H]2C(=O)N3C(C(=O)O)=C(/C=C4\CCN([C@@H]5CCNC5)C4=O)CS[C@H]23)ns1 [ceftobiprole]
t90 ([4]; 0.01 M NaOH): ≈ 10 min | t90 (time for 10% decrease in initial concentration) ([4]; 0.1 M HCl at room temperature): approximately 22 h | t90 ([4]; 3% H2O2): ≈ 25 min | t90 ([4]; UV irradiation at 366 nm): ≈ 1 h | decrease of degradation rate constant in the presence of 10 mM SBE-β-CD ([4]; acidic degradation in 0.1 M HCl at 25 °C): 2.5 fold | decrease of degradation rate constant in the presence of 10 mM SBE-β-CD ([4]; thermal degradation in water at 45 °C): 2.5 fold | pKa of the carboxyl group of ceftobiprole [5]: 3.0 and 3.2

diffusion coefficient D [3]: 7.11 × 10^−10 m^2/s
SMILES: O=C(O)/C=C\C(=O)O [maleic acid]

pH of the solution intended for freeze-drying ([2]; 20-fold molar excess of citric acid in relation to ceftobiprole): 2.9 | pH of the solution intended for freeze-drying ([2]; 50-fold molar excess of citric acid in relation to ceftobiprole): 2.7 | pH of the solution intended for freeze-drying ([2]; 100-fold molar excess of citric acid in relation to ceftobiprole): 2.5
SMILES: O=C(O)CC(O)(CC(=O)O)C(=O)O [citric acid]
